Measured values as given in the supplement of paper PMC10331698.
± gives the standard deviation of the averaged measurements.

Legend:
Test in all cases: level (log10 ratio to DMSO vehicle control); higher = higher biomarker level / cell amount than vehicle control
Details in all cases: in DMSO
[1] = compound: C=C(C)C(=O)OCC(F)(F)C(F)(F)C(F)(F)F [2,2,3,3,4,4,4-Heptafluorobutyl methacrylate]
Protocol: (§1)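 BioMAP Diversity Plus panel of 12 human primary cell co-culture systems (3C, 4H, LPS, SAg, BT, BF4T, BE3C, CASM3C, HDF3CGF, KF3CT, MyoF, Mphg). Compounds were added 1 h before stimulation and left for 24 h (MyoF 48 h; BT 72 h for soluble read-outs or 6 d for IgG). Biomarkers were read by ELISA, cytotoxicity by SRB, PBMC viability and proliferation by Alamar Blue. Each well value was divided by the mean of 8 DMSO control wells on the same plate and log10 transformed; duplicate blinded samples were tested at 4 concentrations.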

[2] = compound: Cc1ccc(S(=O)(=O)OCC(F)(F)C(F)(F)C(F)(F)C(F)(F)C(F)(F)C(F)F)cc1 [1H,1H,7H-Perfluoroheptyl 4-methylbenzenesulfonate]
Protocol: as §1

[3] = compound: FC(F)(F)C(F)(F)C(F)(F)C(F)(F)CCI [1H,1H,2H,2H-Perfluorohexyl iodide]
Protocol: as §1

[4] = compound: O=C(Cl)C(F)(F)C(F)(F)C(F)(F)C(=O)Cl [Hexafluoroglutaryl chloride]
Protocol: as §1

[5] = compound: OCC(F)(F)C(F)(F)C(F)(F)C(F)(F)C(F)(F)C(F)(F)C(F)(F)C(F)(F)CO [1H,1H,10H,10H-Perfluorodecane-1,10-diol]
Protocol: as §1

[6] = compound: OCC(F)(F)C(F)(F)C(F)(F)C(F)(F)C(F)(F)C(F)(F)F [6:1 Fluorotelomer alcohol]
Protocol: as §1

Test System	level (log10) ([1]; 6700 nM)	level (log10) ([1]; 20000 nM)	level (log10) ([1]; 60000 nM)	level (log10) ([2]; 6700 nM)	level (log10) ([2]; 20000 nM)	level (log10) ([2]; 60000 nM)	level (log10) ([3]; 6700 nM)	level (log10) ([3]; 20000 nM)	level (log10) ([3]; 60000 nM)	level (log10) ([4]; 6700 nM)	level (log10) ([4]; 20000 nM)	level (log10) ([4]; 60000 nM)	level (log10) ([5]; 6700 nM)	level (log10) ([5]; 20000 nM)	level (log10) ([5]; 60000 nM)	level (log10) ([6]; 6700 nM)	level (log10) ([6]; 20000 nM)	level (log10) ([6]; 60000 nM)
BF4T:CCL2/MCP-1	0.026 ± 0.0042	0.0355 ± 0.0021	0.0345 ± 0.022	-0.026 ± 0.018	-0.124 ± 0.0085	-0.0585 ± 0.022	0.013 ± 0.059	0.026 ± 0.065	0.0295 ± 0.13	-0.0225 ± 0.00071	-0.009 ± 0.0028	-0.0185 ± 0.005	-0.0755 ± 0.05	-0.273 ± 0.049	-0.329	0.0155 ± 0.015	-0.014 ± 0.028	0.0285 ± 0.015
BT:sTNF-alpha	0.0155 ± 0.043	0.023 ± 0.058	0.0675 ± 0.0092	0.102 ± 0.067	0.0055 ± 0.084	0.084 ± 0.069	-0.016 ± 0.085	-0.003 ± 0.0028	-0.036 ± 0.095	0.0505 ± 0.025	-0.0155 ± 0.037	0.104 ± 0.07	-0.017 ± 0.085	-0.007 ± 0.031	-0.762	0.0265 ± 0.084	-0.0265 ± 0.033	-0.33 ± 0.0042
BE3C:CXCL11/I-TAC	0.0215 ± 0.03	0.0225 ± 0.005	0.017 ± 0.0085	-0.0205 ± 0.0064	-0.0385 ± 0.00071	-0.0185 ± 0.019	-0.001 ± 0.0014	0.0005 ± 0.0035	0.005 ± 0.0099	0.0285 ± 0.015	0.0105 ± 0.046	0.021 ± 0.031	-0.0145 ± 0.0078	-0.149 ± 0.025	-0.901	0.027 ± 0.0057	0.011 ± 0.017	0.008 ± 0.0099
4H:CD62P/P-selectin	-0.002 ± 0.052	-0.008 ± 0.037	0.129 ± 0.021	0.052 ± 0.033	0.002 ± 0.035	0.149 ± 0.012	-0.001 ± 0.011	0.023 ± 0.011	0.0135 ± 0.012	-0.012 ± 0.033	0.0045 ± 0.026	-0.0045 ± 0.043	-0.029 ± 0.052	-0.07 ± 0.083	-0.169	-0.023 ± 0.038	-0.0435 ± 0.029	-0.182 ± 0.079
3C:Proliferation	-0.0315 ± 0.044	-0.0325 ± 0.033	-0.049 ± 0.02	-0.02 ± 0.014	-0.033 ± 0.014	-0.12 ± 0.086	-0.0115 ± 0.0064	-0.051 ± 0.064	-0.047 ± 0.023	-0.0045 ± 0.026	0.006 ± 0.018	-0.0345 ± 0.036	-0.047 ± 0.068	-0.0735 ± 0.06	-0.403	-0.0285 ± 0.0092	-0.0325 ± 0.0064	-0.685 ± 0.77
BF4T:CD90	0 ± 0.0071	-0.004 ± 0.0057	-0.007 ± 0.0042	-0.0095 ± 0.0064	-0.015 ± 0.014	-0.0175 ± 0.0092	-0.011 ± 0.0085	-0.018 ± 0.021	-0.0075 ± 0.005	0.0005 ± 0.013	-0.002 ± 0.018	-0.0035 ± 0.0035	-0.051 ± 0.0014	-0.071 ± 0.0099	-0.018	0.0015 ± 0.0064	-0.011 ± 0.0014	0.0035 ± 0.0092
BT:B cell Proliferation	-0.0305 ± 0.076	-0.02 ± 0.086	-0.058 ± 0.011	-0.0165 ± 0.012	0.011 ± 0.0028	-0.034 ± 0.0057	-0.0105 ± 0.00071	-0.0085 ± 0.016	-0.0005 ± 0.032	0.01	-0.024 ± 0.0057	-0.0095 ± 0.026	0.0155 ± 0.00071	0.0195 ± 0.0078	-0.316	-0.007 ± 0.013	-0.009 ± 0.038	-0.148 ± 0.1
4H:CD87/uPAR	0.035 ± 0.03	0.012 ± 0.0014	0.055 ± 0.048	0.005 ± 0.0071	0.011 ± 0.02	-0.117 ± 0.032	-0.0115 ± 0.0021	-0.0245 ± 0.022	-0.0255 ± 0.0064	0.0165 ± 0.0035	0.0115 ± 0.03	0.004 ± 0.018	-0.057 ± 0.0099	-0.083 ± 0.0042	-0.097	-0.0195 ± 0.018	0.029 ± 0.011	-0.175 ± 0.36
